Results: paper PMC7922932, “Molecular Dissection of Escherichia coli CpdB: Roles of the N Domain in Catalysis and Phosphate Inhibition, and of the C Domain in Substrate Specificity and Adenosine Inhibition” (International Journal of Molecular Sciences, 2021)
Where two headings read alike, the source gives them in different places.

Key:
Mature CpdB [1] = biological target: T1, Mature CpdB (Escherichia coli, UniProt P08331); experiment: biochemical; type: biochemical; parameters: A structural model of mature CpdB (aa 20–647) was built; GST (N, cleaved yes); made in house; host or cells: E. coli BL21
T1 sequence (P08331 20-647): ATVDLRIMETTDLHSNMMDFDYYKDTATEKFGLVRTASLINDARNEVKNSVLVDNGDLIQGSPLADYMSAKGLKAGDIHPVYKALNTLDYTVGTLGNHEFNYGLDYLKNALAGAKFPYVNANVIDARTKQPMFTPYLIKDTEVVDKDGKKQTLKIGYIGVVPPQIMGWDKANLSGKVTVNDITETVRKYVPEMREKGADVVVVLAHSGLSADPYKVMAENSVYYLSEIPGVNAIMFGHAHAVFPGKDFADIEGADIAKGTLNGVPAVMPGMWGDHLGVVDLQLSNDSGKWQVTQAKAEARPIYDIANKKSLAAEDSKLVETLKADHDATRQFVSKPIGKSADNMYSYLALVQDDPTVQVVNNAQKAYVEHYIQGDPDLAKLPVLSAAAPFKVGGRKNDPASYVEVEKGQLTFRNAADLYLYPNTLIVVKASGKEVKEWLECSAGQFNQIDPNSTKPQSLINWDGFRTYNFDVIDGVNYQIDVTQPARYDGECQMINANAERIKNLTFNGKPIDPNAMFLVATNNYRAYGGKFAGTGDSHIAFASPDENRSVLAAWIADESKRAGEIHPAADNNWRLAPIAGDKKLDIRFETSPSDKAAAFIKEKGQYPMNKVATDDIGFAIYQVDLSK
Protocol: (§1) Reaction mixtures of 100 µL contained, besides the needed amount of enzyme (i.e., 0.02–0.05 µg/mL of mature CpdB, 2 µg/mL of a CpdB point mutant, or 0.2 µg/mL of CpdB_Ndom), 50 mM Tris [Tris(hydroxymethyl)aminomethane]-HCl pH 7.5 (adjusted at 37 °C), 2 mM MnCl2, 0.1 mg/mL bovine serum albumin, and the indicated concentrations of bis-4-NPP and the compound tested as inhibitor. Incubations performed at 37 °C were stopped by addition of 0.5 mL of 200 mM Tris, pH 8.9, 5 mM EDTA (ethylenediaminetetraacetate), immediately followed by A405 measurement (ε = 18.1 mM^−1 cm^−1). This termination procedure was used instead of the addition of a high NaOH concentration, to avoid the known formation of brown precipitates of air-oxidized Mn^2+ hydroxide. On occasions, when a higher sensitivity was needed, reaction mixtures of 500 µL were implemented and termination was performed with 0.1 mL 1M Tris, pH 8.9, 30 mM EDTA.

CpdB_Ndom [2] = type: biochemical, Escherichia coli; conditions: CpdB_Ndom versus CpdB; bis-4-NPP as substrate
CpdB_Ndom [3] = biological target: T2, CpdB_Ndom (Escherichia coli, UniProt P08331, D305N/I97V/M87I); type: biochemical; conditions: CpdB_Ndom; 750 µM bis-4-NPP as the substrate; single illustrative experiments
T2 construct: GST (N, cleaved yes); made in house; host or cells: E. coli BL21
T2 sequence (P08331 20-354 M87I/I97V/D305N): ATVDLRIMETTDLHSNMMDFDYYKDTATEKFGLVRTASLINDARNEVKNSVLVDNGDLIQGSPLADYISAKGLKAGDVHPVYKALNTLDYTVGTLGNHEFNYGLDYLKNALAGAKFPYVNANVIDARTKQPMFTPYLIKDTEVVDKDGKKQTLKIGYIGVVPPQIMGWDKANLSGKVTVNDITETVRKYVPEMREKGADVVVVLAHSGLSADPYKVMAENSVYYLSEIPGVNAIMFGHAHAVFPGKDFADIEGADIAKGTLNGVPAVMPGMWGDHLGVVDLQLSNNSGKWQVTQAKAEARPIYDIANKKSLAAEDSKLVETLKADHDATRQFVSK

CpdB_Ndom [4] = biological target: T2, CpdB_Ndom; experiment: biochemical
Protocol: Substrate saturation experiments were run in the absence and the presence of one of these inhibitors at fixed concentrations (Figure 7).
as §1

Mature CpdB [5] = biological target: T1, Mature CpdB; experiment: biochemical
Description: In this approach, inhibitors were used as probes for the relevance of those enzyme sites, irrespective of the physiological character and concentrations of the compounds used.
The procedures and detailed conditions to measure the initial rates of phosphohydrolytic reactions were as earlier described [4]. […] The same assay was used with 2′,3′- or 3′,5′-cyclic nucleotides, CDP-choline and bis-4-NPP except that an excess of alkaline phosphatase was included in the reaction mixture as auxiliary enzyme.
The procedures followed to derive kinetic parameters kcat, KM and Ki from initial rate vs. substrate concentration datasets, either in the presence or the absence of inhibitor, were as described elsewhere [49]. Datasets obtained with different substrates in the absence of inhibitors were used to derive kcat and KM values by adjusting the Michaelis-Menten equation to the experimental points by non-linear regression. […] Each one of these equations was simultaneously adjusted (global fit) by nonlinear regression to the three saturation curves of each inhibition experiment, using the Solver function of Microsoft Excel. During the adjustments, Vmax, KM and Ki were left to fluctuate. […] In each set of experiments, the type of inhibition that gave the best fit was used as the model to estimate Ki values.

[6] = biological target: T3, Tyr^544Ala-CpdB (Y544A-CpdB) (Escherichia coli, UniProt P08331, D305N/I514V/I97V/M87I/N471D/S472N/Y544A); experiment: biochemical
T3 construct: A structural model of mature CpdB (aa 20–647) was built; GST (N, cleaved yes); made in house; host or cells: E. coli BL21
T3 sequence (P08331 20-647 M87I/I97V/D305N/N471D/S472N/I514V/Y544A): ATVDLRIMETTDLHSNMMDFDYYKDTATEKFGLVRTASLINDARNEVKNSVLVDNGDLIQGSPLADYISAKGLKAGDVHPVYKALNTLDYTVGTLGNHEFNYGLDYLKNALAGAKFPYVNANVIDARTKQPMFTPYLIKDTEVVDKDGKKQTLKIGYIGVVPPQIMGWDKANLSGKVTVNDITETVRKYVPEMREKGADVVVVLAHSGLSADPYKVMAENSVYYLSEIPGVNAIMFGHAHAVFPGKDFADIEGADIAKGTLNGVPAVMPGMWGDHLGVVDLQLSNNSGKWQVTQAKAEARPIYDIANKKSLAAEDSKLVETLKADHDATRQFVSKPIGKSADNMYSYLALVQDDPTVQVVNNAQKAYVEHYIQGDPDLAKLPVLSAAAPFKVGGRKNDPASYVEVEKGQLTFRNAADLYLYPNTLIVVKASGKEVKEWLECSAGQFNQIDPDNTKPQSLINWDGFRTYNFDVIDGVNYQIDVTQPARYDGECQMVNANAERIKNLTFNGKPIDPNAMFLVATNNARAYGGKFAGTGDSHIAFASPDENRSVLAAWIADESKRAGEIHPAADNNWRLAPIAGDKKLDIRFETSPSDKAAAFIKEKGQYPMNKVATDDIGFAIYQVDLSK
Protocol: (§2) The two point mutants His^117Ala and Tyr^544Ala of mature CpdB were also tested for the inhibition of the hydrolysis of bis-4-NPP by adenosine.
as §1

[7] = biological target: T4, His^117Ala-CpdB (H117A-CpdB) (Escherichia coli, UniProt P08331, D305N/H117A/I514V/I97V/M87I/N471D/S472N); experiment: biochemical
T4 construct: A structural model of mature CpdB (aa 20–647) was built; GST (N, cleaved yes); made in house; host or cells: E. coli BL21
T4 sequence (P08331 20-647 M87I/I97V/H117A/D305N/N471D/S472N/I514V): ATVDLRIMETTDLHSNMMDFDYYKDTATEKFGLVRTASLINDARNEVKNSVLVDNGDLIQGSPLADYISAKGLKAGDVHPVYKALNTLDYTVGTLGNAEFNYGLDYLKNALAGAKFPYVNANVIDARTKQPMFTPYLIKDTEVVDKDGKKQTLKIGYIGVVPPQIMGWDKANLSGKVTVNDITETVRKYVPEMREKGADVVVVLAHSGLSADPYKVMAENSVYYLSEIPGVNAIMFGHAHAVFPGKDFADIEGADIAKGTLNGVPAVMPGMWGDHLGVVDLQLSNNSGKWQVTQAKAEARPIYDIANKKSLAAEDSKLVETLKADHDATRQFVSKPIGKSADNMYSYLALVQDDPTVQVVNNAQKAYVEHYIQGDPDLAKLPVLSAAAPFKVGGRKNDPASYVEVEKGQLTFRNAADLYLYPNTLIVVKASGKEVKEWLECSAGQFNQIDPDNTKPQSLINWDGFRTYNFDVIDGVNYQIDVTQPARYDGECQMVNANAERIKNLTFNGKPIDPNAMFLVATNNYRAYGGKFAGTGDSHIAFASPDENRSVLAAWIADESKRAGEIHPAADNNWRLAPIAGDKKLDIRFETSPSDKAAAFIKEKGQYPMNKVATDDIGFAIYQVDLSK
Protocol: as §2, §1

Row | Molecule | IC50 (Mature CpdB [1]; mature CpdB, 750 µM bis-4-NPP as the substrate, single illustrative experiments, read-out: IC50) [mM] | Ki (Mature CpdB [1]; mature CpdB, substrate bis-4-NPP, global fit, mixed partial inhibition (Figure 5), values without SD are single experiments, read-out: Inhibition constant (Ki)) [µM] | Ki increase in the absence of the C-terminal domain (CpdB_Ndom [2]) | IC50 (CpdB_Ndom [3]) [mM] | Ki (CpdB_Ndom [4]; CpdB_Ndom, substrate bis-4-NPP, global fit, complete competitive inhibition (Figure 7), read-out: Inhibition constant (Ki)) [mM] | IC50 (Mature CpdB [1]) [mM] | Ki (Mature CpdB [1]) [µM] | IC50 (Mature CpdB [5]) [mM] | Ki (Mature CpdB [5]) [µM] | IC50 (CpdB_Ndom [4]) [mM] | Ki (CpdB_Ndom [4]) [mM] | IC50 [6] [mM] | IC50 [7] [mM]
1 | phosphate | 9 | 1380 ± 340 | did not change | 1.7 | 1.06 ± 0.21 | – | – | – | – | – | – | – | –
2 | Nc1ncnc2c1ncn2[C@@H]1O[C@H](CO)[C@@H](O)[C@H]1O [Adenosine, adenosine] | – | – | – | – | – | 0.87 | 160 | 3.25 | 41 ± 17 | > 10 | 48 | ~30 | 2
